The conditions of series [1]: Galli et al. 1989, 13-week oral study in rats, spinacine hydrochloride; cited from earlier work.
The next series deals with C33A cells. Put plainly: MTT cell viability, HPV- C33A cells with TRAIL. Conditions: 100 μM myricetin or 50 μM spinacine for 4 h. It is filed as cell-based, human. The method, then:
FIGS. 5A-B are graphs showing myricetin and spinacine (5) re-sensitized HPV^+, but not HPV^−, cells to treatment with TRAIL. SiHa (2×10^4 cells per well) and C33A cells (1×10^4 cells per well) were seeded into a 96-well plate and allowed to incubate overnight, then cells were pre-treated in the presence or absence of myricetin (100 μM) (FIG. 5A) or spinacine (50 μM) (FIG. 5B) for 4 h. The indicated concentration of TRAIL, along with cycloheximide (5 μg/ml) was added and cells were allowed to incubate overnight. Cell viability was measured by MTT assay, and the viability of cells untreated with TRAIL was set at 100%. Experiments were performed in triplicate, and error bars indicate the standard deviation.
The extracellular domain of human TRAIL was cloned into a pTriEx expression plasmid containing N-terminal Hisx6 tag. His-TRAIL was expressed in the E. coli BL-21 pLys strain and purified as previously described. Doxorubicin and cisplatin were purchased from Sigma. His-TRAIL, doxorubicin, and cisplatin were diluted in PBS to the desired concentration before using. […] All experiments were repeated at least three times (three biological replicates, carried out on different days), with each experimental group measured in triplicate within each of these individual experiments. […]

Molecules are shown by their SMILES.

As to `O=C(O)C1Cc2[nH]cnc2CN1` (centres unmarked) [Compound 5, 4,5,6,7-Tetrahydro-1H-imidazo(4,5-c)pyridine-6-carboxylic acid], the “safety and tolerability (in words)” value in series [1] is given as “safe, well-tolerated”.
For `O=c1c(O)c(-c2cc(O)c(O)c(O)c2)oc2cc(O)cc(O)c12` [Myricetin, reference compound], the “response of C33A cells to TRAIL-mediated apoptosis after pre-treatment (in words)” value in the series with C33A cells is reported as “remained resistant”.
